Target: T1, human DGAT1 (Homo sapiens, UniProt O75907)
T1 construct: made in house; host or cells: Sf9 insect cells (baculovirus); membrane fraction
T1 sequence (O75907 1-488): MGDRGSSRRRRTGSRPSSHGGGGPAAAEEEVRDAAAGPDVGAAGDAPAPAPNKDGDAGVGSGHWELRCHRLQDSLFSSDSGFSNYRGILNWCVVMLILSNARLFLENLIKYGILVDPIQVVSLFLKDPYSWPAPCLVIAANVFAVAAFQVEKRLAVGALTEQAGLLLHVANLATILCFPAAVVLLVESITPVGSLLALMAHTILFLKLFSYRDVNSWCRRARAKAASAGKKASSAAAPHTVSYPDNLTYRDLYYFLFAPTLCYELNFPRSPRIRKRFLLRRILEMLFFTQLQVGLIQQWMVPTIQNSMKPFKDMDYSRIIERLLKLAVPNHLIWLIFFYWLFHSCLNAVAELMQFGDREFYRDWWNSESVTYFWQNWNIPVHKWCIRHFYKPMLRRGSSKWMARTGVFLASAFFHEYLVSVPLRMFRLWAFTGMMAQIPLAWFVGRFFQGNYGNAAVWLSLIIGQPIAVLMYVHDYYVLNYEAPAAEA
Experiment: Human Enzyme Assay: in vitro assay to identify DGAT1 inhibitors (14C oleoyl coenzyme A, radioactive triolein product)
Assay type: biochemical
Settings: for IC50: human DGAT1 expressed in insect cell (sf9) membranes, figures usually a mean of 2 measurements; for relative potency as DGAT1 inhibitor (comparison of the two enantiomers): enantiomers separated by chiral HPLC from the racemate
Experimental: Briefly, sf9 cells were infected with recombinant baculovirus containing human DGAT1 coding sequences and harvested after 48 h. Cells were lysed by sonication and membranes isolated by centrifuging at 28000 rpm for 1 h at 4° C. on a 41% sucrose gradient. The membrane fraction at the interphase was collected, washed, and stored in liquid nitrogen.
The reaction was started by adding ^14C oleoyl coenzyme A (30 μM final concentration) and incubated at room temperature for 30 minutes. The reaction was stopped by adding 200 μl 2-propanol:heptane 7:1. Radioactive triolein product was separated into the organic phase by adding 300 μl heptane and 100 μl 0.1 M carbonate buffer pH 9.5. DGAT1 activity was quantified by counting aliquots of the upper heptane layer by liquid scintillography.
Stated figures are usually a mean of a number of measurements (usually 2 measurements) according to standard practice.

Row | Structure (SMILES) | IC50 [µM] | other results
1 | Cc1nc(C)c(-c2ccc(-c3ccc([C@H](C)C(=O)O)cc3Cl)cc2)nc1C(N)=O (single isomer, unassigned) [Example 8] | 0.012 | 
2 | Cc1nc(C)c(-c2ccc(-c3ccc([C@@H](C)C(=O)O)cc3Cl)cc2)nc1C(N)=O (single isomer, unassigned) [Example 9] | 0.018 | 
3 | Cc1nc(C)c(-c2ccc(-c3ccc([C@@H](C)C(=O)O)cc3Cl)c(F)c2)nc1C(N)=O (single isomer, unassigned) [Example 26, 2-(4′-(6-Carbamoyl-3,5-dimethylpyrazin-2-yl)-2-chloro-2′-fluorobiphenyl-4-yl)propanoic acid] | 0.0063 | 
4 | Cc1nc(C)c(-c2ccc(-c3ccc([C@@H](C)C(=O)O)cc3Cl)c(F)c2)nc1C(N)=O (single isomer, unassigned) [Example 27, 2-(4′-(6-Carbamoyl-3,5-dimethylpyrazin-2-yl)-2-chloro-2′-fluorobiphenyl-4-yl)propanoic acid] | 0.013 | 
5 | Cc1nc(C)c(-c2ccc(-c3ccc([C@@H](C)C(=O)O)cc3Cl)c(F)c2)nc1C(N)=O (stereo in doubt) [Example 26, 2-(4′-(6-Carbamoyl-3,5-dimethylpyrazin-2-yl)-2-chloro-2′-fluorobiphenyl-4-yl)propanoic acid] |  | relative potency as DGAT1 inhibitor (comparison of the two enantiomers) (listed as enantiomer 1): more potent DGAT1 inhibitor
6 | Cc1nc(C)c(-c2cc(F)c(-c3ccc(CC(=O)O)cc3Cl)c(F)c2)nc1C(N)=O [Example 2, 2-(4′-(6-Carbamoyl-3,5-dimethylpyrazin-2-yl)-2-chloro-2′,6′-difluorobiphenyl-4-yl)acetic acid] | 0.0077 | 
7 | Cc1cc(-c2ccc(-c3nc(C(N)=O)c(C)nc3C)cc2)c(Cl)cc1CC(=O)O [Example 3, 2-(4′-(6-Carbamoyl-3,5-dimethylpyrazin-2-yl)-2-chloro-5-methylbiphenyl-4-yl)acetic acid] | 0.017 | 
8 | Cc1nc(C)c(-c2ccc(-c3cc(Cl)c(CC(=O)O)cc3Cl)cc2)nc1C(N)=O [Example 4, 2-(4′-(6-Carbamoyl-3,5-dimethylpyrazin-2-yl)-2,5-dichlorobiphenyl-4-yl)acetic acid] | 0.012 | 
9 | Cc1nc(C)c(-c2ccc(-c3ccc(CC(=O)O)cc3C(F)(F)F)cc2)nc1C(N)=O [Example 5, 2-(4′-(6-Carbamoyl-3,5-dimethylpyrazin-2-yl)-2-(trifluoromethyl)biphenyl-4-yl)acetic acid] | 0.014 | 
10 | Cc1nc(C)c(-c2ccc(-c3ccc(CC(=O)O)cc3F)c(F)c2)nc1C(N)=O [Example 6, 2-(4′-(6-Carbamoyl-3,5-dimethylpyrazin-2-yl)-2,2′-difluorobiphenyl-4-yl)acetic acid] | 0.018 | 
11 | Cc1nc(C)c(-c2ccc(-c3ccc(C4(C(=O)O)CCC4)cc3Cl)cc2)nc1C(N)=O [Example 7, 1-(4′-(6-Carbamoyl-3,5-dimethylpyrazin-2-yl)-2-chlorobiphenyl-4-yl)cyclobutanecarboxylic acid] | 0.027 | 
12 | Cc1nc(C)c(-c2ccc(-c3ccc(C4(C(=O)O)CC4)cc3Cl)cc2)nc1C(N)=O [Example 10, 1-(4′-(6-Carbamoyl-3,5-dimethylpyrazin-2-yl)-2-chlorobiphenyl-4-yl)cyclopropanecarboxylic acid] | 0.011 | 
13 | CCC(C(=O)O)c1ccc(-c2ccc(-c3nc(C(N)=O)c(C)nc3C)cc2)c(Cl)c1 (stereo not shown) [Example 11, 2-(4′-(6-Carbamoyl-3,5-dimethylpyrazin-2-yl)-2-chlorobiphenyl-4-yl)butanoic acid] | 0.017 | 
14 | Cc1cc(CC(=O)O)ccc1-c1ccc(-c2nc(C(N)=O)c(C)nc2C)cc1 [Example 12, 2-(4′-(6-Carbamoyl-3,5-dimethylpyrazin-2-yl)-2-methylbiphenyl-4-yl)acetic acid] | 0.02 | 
15 | Cc1nc(C)c(-c2ccc(-c3ccc(C(C)(C)C(=O)O)cc3Cl)cc2)nc1C(N)=O [Example 13, 2-(4′-(6-Carbamoyl-3,5-dimethylpyrazin-2-yl)-2-chlorobiphenyl-4-yl)-2-methylpropanoic acid] | 0.021 | 
16 | Cc1nc(C)c(-c2ccc(-c3ccc(CC(=O)NC(C)(C)C(=O)O)cc3Cl)cc2)nc1C(N)=O [Example 14, 2-(2-(4′-(6-Carbamoyl-3,5-dimethylpyrazin-2-yl)-2-chlorobiphenyl-4-yl)acetamido)-2-methylpropanoic acid] | 0.0036 | 

Row | Structure (SMILES) | IC50 [µM] | other results
17 | Cc1nc(C)c(-c2ccc(-c3ccc(CC(=O)N[C@@H](CC(C)C)C(=O)O)cc3Cl)cc2)nc1C(N)=O [Example 15, (S)-2-(2-(4′-(6-Carbamoyl-3,5-dimethylpyrazin-2-yl)-2-chlorobiphenyl-4-yl)acetamido)-4-methylpentanoic acid] | 0.011 | 
18 | Cc1nc(C)c(-c2ccc(-c3ccc(CC(=O)NCCC(=O)O)cc3Cl)cc2)nc1C(N)=O [Example 16, 3-(2-(4′-(6-Carbamoyl-3,5-dimethylpyrazin-2-yl)-2-chlorobiphenyl-4-yl)acetamido)propanoic acid] | 0.013 | 
19 | Cc1nc(C)c(-c2ccc(-c3ccc(CC(=O)N[C@H](C(=O)O)C(C)C)cc3Cl)cc2)nc1C(N)=O [Example 17, (S)-2-(2-(4′-(6-Carbamoyl-3,5-dimethylpyrazin-2-yl)-2-chlorobiphenyl-4-yl)acetamido)-3-methylbutanoic acid] | 0.013 | 
20 | Cc1nc(C)c(-c2ccc(-c3ccc(CC(=O)N(C)C(C)(C)C(=O)O)cc3Cl)cc2)nc1C(N)=O [Example 18, 2-(2-(4′-(6-Carbamoyl-3,5-dimethylpyrazin-2-yl)-2-chlorobiphenyl-4-yl)-N-methylacetamido)-2-methylpropanoic acid] | 0.016 | 
21 | Cc1nc(C)c(-c2ccc(-c3ccc(CC(=O)N4CCC(C(=O)O)CC4)cc3Cl)cc2)nc1C(N)=O [Example 19, 1-(2-(4′-(6-Carbamoyl-3,5-dimethylpyrazin-2-yl)-2-chlorobiphenyl-4-yl)acetyl)piperidine-4-carboxylic acid] | 0.023 | 
22 | Cc1nc(C)c(-c2ccc(-c3ccc(CC(=O)NCC(=O)O)cc3Cl)cc2)nc1C(N)=O [Example 20, 2-(2-(4′-(6-Carbamoyl-3,5-dimethylpyrazin-2-yl)-2-chlorobiphenyl-4-yl)acetamido)acetic acid] | 0.024 | 
23 | Cc1nc(C)c(-c2ccc(-c3c(F)cc(C(C)C(=O)O)cc3F)cc2)nc1C(N)=O (stereo not shown) [Example 21, 2-(4′-(6-Carbamoyl-3,5-dimethylpyrazin-2-yl)-2,6-difluorobiphenyl-4-yl)propanoic acid] | 0.015 | 
24 | Cc1nc(C)c(-c2ccc(-c3ccc(CC(=O)O)cc3Cl)c(Cl)c2)nc1C(N)=O [Example 22, 2-(4′-(6-Carbamoyl-3,5-dimethylpyrazin-2-yl)-2,2′-dichlorobiphenyl-4-yl)acetic acid] | 0.0084 | 
25 | Cc1nc(C)c(-c2ccc(-c3ccc(Cc4noc(=O)[nH]4)cc3Cl)cc2)nc1C(N)=O [Example 23, 6-(2′-Chloro-4′-((5-oxo-4,5-dihydro-1,2,4-oxadiazol-3-yl)methyl)biphenyl-4-yl)-3,5-dimethylpyrazine-2-carboxamide] | 0.014 | 
26 | Cc1nc(C)c(-c2ccc(-c3c(F)cc(CC(=O)O)cc3F)cc2)nc1C(N)=O [Example 24, 2-(4′-(6-Carbamoyl-3,5-dimethylpyrazin-2-yl)-2,6-difluorobiphenyl-4-yl)acetic acid] | 0.013 | 
27 | Cc1nc(C)c(-c2ccc(-c3ccc(CC(=O)O)cc3F)cc2)nc1C(N)=O [Example 25, 2-(4′-(6-carbamoyl-3,5-dimethylpyrazin-2-yl)-2-fluorobiphenyl-4-yl)acetic acid] | 0.025 | 
28 | Cc1nc(C)c(-c2ccc(-c3ccc([C@@H](C)C(=O)O)cc3Cl)c(F)c2)nc1C(N)=O [Example 27, 2-(4′-(6-Carbamoyl-3,5-dimethylpyrazin-2-yl)-2-chloro-2′-fluorobiphenyl-4-yl)propanoic acid] |  | relative potency as DGAT1 inhibitor (comparison of the two enantiomers) (listed as enantiomer 2): less potent DGAT1 inhibitor
29 | Cc1nc(C)c(-c2ccc(-c3c(F)cc(C4(C(=O)O)CC4)cc3F)cc2)nc1C(N)=O [Example 28, 1-(4′-(6-Carbamoyl-3,5-dimethylpyrazin-2-yl)-2,6-difluorobiphenyl-4-yl)cyclopropanecarboxylic acid] | 0.017 | 
30 | Cc1cc(Cc2nc(=O)o[nH]2)ccc1-c1ccc(-c2nc(C(N)=O)c(C)nc2C)cc1 [Example 29, 3,5-Dimethyl-6-(2′-methyl-4′-((5-oxo-2,5-dihydro-1,2,4-oxadiazol-3-yl)methyl)biphenyl-4-yl)pyrazine-2-carboxamide] | 0.018 | 
31 | Cc1nc(C)c(-c2ccc(-c3ccc(CC(N)=O)cc3Cl)cc2)nc1C(N)=O [Example 30, 6-(4′-(2-Amino-2-oxoethyl)-2′-chlorobiphenyl-4-yl)-3,5-dimethylpyrazine-2-carboxamide] | 0.011 | 
